Our source for the IC50 values is publication PMC12494099, “Discovery and Characterization of Novel IKZF1/3 Glue Degraders against Multiple Hematological Cancer Cell Lines” (Oncology Research, 2025).

What all share (assay): Cell viability (CCK-8) assay
What all share (assay type): cell-based

One assay has as its system MV-4-11. To be noted: Homo sapiens, MV4-11, 96 h, 96 h, CCK-8. The protocol:
(§1) The plated at a density of 15,000 cells per well, and each well contained 100 µL of medium. Subsequently, different compounds (MGD-AX, MGD-BX, MGD-CX) were added to each well. […] To evaluate the antiproliferative effects of these compounds, the Cell Counting Kit-8 (CCK-8, #CX007, Epizyme, Shanghai, China) was used. All procedures were carried out in strict accordance with the manufacturer’s instructions (Dojindo Laboratories, Mamoto Ken, Japan).

Another assay concerns NCI-H929. Particulars: Homo sapiens, NCI-H929, 96 h. The protocol:
as §1

In a further assay the test system is Ocl-Ly3. Particulars: 96 h, CCK-8. As for the experimental part:
as §1

What is called IC50 is the concentration needed to halve the response being measured. High values mean lower potency, low ones higher potency. For the compound `Nc1cccc2c1CN(C1CCC(=O)NC1=O)C2=O` (stereo not drawn) [Lenalidomide, reference compound], the IC50 came to 17.9 ± 1.7 µM in the assay on MV-4-11, 7.36 ± 0.7 µM in the assay on NCI-H929 and 27.6 ± 2.63 µM in the assay with Ocl-Ly3.

Turning to `O=C1CCC(NC(=O)c2cccc(CNC3CC3)c2)C(=O)N1` (stereo not drawn) [MGD-A1, 3-((cyclopropylamino)methyl)-N-(2,6-dioxopiperidin-3-yl)benzamide], the IC50 is 7.34 ± 0.7 µM with MV-4-11, 10.3 ± 0.98 µM in the assay on NCI-H929 and more than 33 µM with Ocl-Ly3.

For the compound `O=C1CCC(NC(=O)c2cccc(CNCC3CC3)c2)C(=O)N1` (stereo not drawn) [MGD-A2, 3-(((cyclopropylmethyl)amino)methyl)-N-(2,6-dioxopiperidin-3-yl)benzamide], the IC50 in the assay with MV-4-11 turned out to be 8.3 ± 0.79 µM; in the assay with NCI-H929, 12.7 ± 1.21 µM; in the assay on Ocl-Ly3 it was 21.3 ± 2.03 µM.

As for `CC1CCCCN1Cc1cccc(C(=O)NC2CCC(=O)NC2=O)c1` (stereo not drawn) [MGD-A3, N-(2,6-dioxopiperidin-3-yl)-3-((2-methylpiperidin-1-yl)methyl)benzamide], the IC50 turned out to be 6.03 ± 0.58 µM in the assay with MV-4-11, 5.39 ± 0.51 µM with NCI-H929 and 7.27 ± 0.69 µM in the assay on Ocl-Ly3.

In the case of `CC1CCCN(Cc2cccc(C(=O)NC3CCC(=O)NC3=O)c2)C1` (stereo not drawn) [MGD-A4, N-(2,6-dioxopiperidin-3-yl)-3-((3-methylpiperidin-1-yl)methyl)benzamide], the IC50 in the assay on MV-4-11 amounted to 3.11 ± 0.3 µM; with NCI-H929, 4.56 ± 0.44 µM; with Ocl-Ly3, 6.33 ± 0.6 µM.

In the case of `CC1CCN(Cc2cccc(C(=O)NC3CCC(=O)NC3=O)c2)CC1` (stereo not drawn) [MGD-A5, N-(2,6-dioxopiperidin-3-yl)-3-((4-methylpiperidin-1-yl)methyl)benzamide], the IC50 with MV-4-11 came out at 2.03 ± 0.19 µM; in the assay with NCI-H929 it was 2.88 ± 0.28 µM; in the assay on Ocl-Ly3, 4.03 ± 0.38 µM.

`CC1CCCC(C)N1Cc1cccc(C(=O)NC2CCC(=O)NC2=O)c1` (stereo not drawn) [MGD-A6, 3-((2,6-dimethylpiperidin-1-yl)methyl)-N-(2,6-dioxopiperidin-3-yl)benzamide]: the IC50 in the assay with MV-4-11 came out at 3.44 ± 0.33 µM; with NCI-H929, 3.02 ± 0.38 µM; in the assay with Ocl-Ly3, 5.9 ± 0.56 µM.

In the case of `CCN1CCN(Cc2cccc(C(=O)NC3CCC(=O)NC3=O)c2)CC1` (stereo not drawn) [MGD-A8, N-(2,6-dioxopiperidin-3-yl)-3-((4-ethylpiperazin-1-yl)methyl)benzamide], the figures for the IC50 with MV-4-11, with NCI-H929 and with Ocl-Ly3 were 0.8 ± 0.1 µM, 0.9 ± 0.13 µM and 4.12 ± 0.39 µM, respectively.

Regarding `CC1CCCC(C)N1C(=O)c1cccc(C(=O)NC2CCC(=O)NC2=O)c1` (stereo not drawn) [MGD-A13, 3-(2,6-dimethylpiperidine-1-carbonyl)-N-(2,6-dioxopiperidin-3-yl)benzamide], the IC50 was found to be 9.26 ± 0.88 µM with MV-4-11, 10.3 ± 0.98 µM in the assay on NCI-H929 and 17.2 ± 1.64 µM with Ocl-Ly3.

Consider `O=C1CCC(NC(=O)c2cccc(C(=O)N3CCSCC3)c2)C(=O)N1` (stereo not drawn) [MGD-A15, N-(2,6-dioxopiperidin-3-yl)-3-(thiomorpholine-4-carbonyl)benzamide], for which the IC50 with MV-4-11 turned out to be 4.45 ± 0.42 µM; in the assay with NCI-H929, 6.9 ± 0.66 µM; with Ocl-Ly3 it was 9.43 ± 0.9 µM.

In the case of `O=C1CCC(NC(=O)c2cccc(CN3CCCC3)n2)C(=O)N1` (stereo not drawn) [MGD-B1, N-(2,6-dioxopiperidin-3-yl)-6-(pyrrolidin-1-ylmethyl)picolinamide], the values for the IC50 in the assay on MV-4-11, in the assay on NCI-H929 and in the assay with Ocl-Ly3 were 15 ± 1.42 µM, 7.9 ± 0.75 µM and 22.4 ± 2.13 µM, respectively.

In the case of `O=C1CCC(NC(=O)c2cccc(CN3CCCCC3)n2)C(=O)N1` (stereo not drawn) [MGD-B2, N-(2,6-dioxopiperidin-3-yl)-6-(piperidin-1-ylmethyl)picolinamide], the IC50 is 6.78 ± 0.65 µM in the assay with MV-4-11, 8.5 ± 0.81 µM in the assay with NCI-H929 and more than 33 µM in the assay with Ocl-Ly3.

As for `CN1CCN(Cc2cccc(C(=O)NC3CCC(=O)NC3=O)n2)CC1` (stereo not drawn) [MGD-B3, N-(2,6-dioxopiperidin-3-yl)-6-((4-methylpiperazin-1-yl)methyl)picolinamide], the IC50 in the assay on MV-4-11 was found to be 0.72 ± 0.13 µM; in the assay with NCI-H929, 0.92 ± 0.12 µM; in the assay on Ocl-Ly3, 2.03 ± 0.39 µM.

Consider `O=C1CCC(NC(=O)c2cccc(CN3CCOCC3)n2)C(=O)N1` (stereo not drawn) [MGD-B4, N-(2,6-dioxopiperidin-3-yl)-6-(morpholinomethyl)picolinamide], for which the results for the IC50 in the assay with MV-4-11, in the assay on NCI-H929 and in the assay with Ocl-Ly3 were 3.02 ± 0.29 µM, 4.65 ± 0.44 µM and 15 ± 1.42 µM, respectively.
